Assay results as given in PubChem BioAssay (NCI).
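Following 48 hours of exposure in 96-well plates, responses at five concentrations were used to interpolate endpoints linearly. Definition used: TGI = concentration required for complete inhibition of growth.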

What was measured:
Test in all cases: NCI anticancer screen, dose series, 48 h
EKVX NSCLC = tested on: EKVX NSCLC
SF-268 CNS = tested on: SF-268 CNS
UO-31 renal = tested on: UO-31 renal
A498 renal = tested on: A498 renal
RPMI-8226 leukemia = tested on: RPMI-8226 leukemia
IGROV1 ovarian = tested on: IGROV1 ovarian
LOX IMVI melanoma = tested on: LOX IMVI melanoma
KM12 colon = tested on: KM12 colon
DMS 273 small cell lung = tested on: DMS 273 small cell lung
SF-539 CNS = tested on: SF-539 CNS
786-0 renal = tested on: 786-0 renal
LXFL 529 NSCLC = tested on: LXFL 529 NSCLC
HOP-62 NSCLC = tested on: HOP-62 NSCLC
A549 NSCLC = tested on: A549 NSCLC
OVCAR-5 ovarian = tested on: OVCAR-5 ovarian
OVCAR-4 ovarian = tested on: OVCAR-4 ovarian
SW-620 colon = tested on: SW-620 colon
SNB-78 CNS = tested on: SNB-78 CNS
OVCAR-8 ovarian = tested on: OVCAR-8 ovarian
SNB-19 CNS = tested on: SNB-19 CNS
HCT-116 colon = tested on: HCT-116 colon
SK-OV-3 ovarian = tested on: SK-OV-3 ovarian
KM20L2 colon = tested on: KM20L2 colon
UACC-257 melanoma = tested on: UACC-257 melanoma
NCI-H460 lung = tested on: NCI-H460 lung
ACHN renal = tested on: ACHN renal
CCRF-CEM leukemia = tested on: CCRF-CEM leukemia
SK-MEL-5 melanoma = tested on: SK-MEL-5 melanoma
M19-MEL melanoma = tested on: M19-MEL melanoma
K-562 leukemia = tested on: K-562 leukemia
CAKI-1 renal = tested on: CAKI-1 renal
SF-295 CNS = tested on: SF-295 CNS
MOLT-4 leukemia = tested on: MOLT-4 leukemia
MALME-3M melanoma = tested on: MALME-3M melanoma
M14 melanoma = tested on: M14 melanoma
DLD-1 colon = tested on: DLD-1 colon
SK-MEL-2 melanoma = tested on: SK-MEL-2 melanoma
DMS 114 small cell lung = tested on: DMS 114 small cell lung
COLO 205 colon = tested on: COLO 205 colon
SN12C renal = tested on: SN12C renal
SR leukemia = tested on: SR leukemia
TK-10 renal = tested on: TK-10 renal
HL-60(TB) leukemia = tested on: HL-60(TB) leukemia
HCT-15 colon = tested on: HCT-15 colon
HT29 colon = tested on: HT29 colon
UACC-62 melanoma = tested on: UACC-62 melanoma
NCI-H522 lung = tested on: NCI-H522 lung
OVCAR-3 ovarian = tested on: OVCAR-3 ovarian
NCI-H23 lung = tested on: NCI-H23 lung
SNB-75 CNS = tested on: SNB-75 CNS
HOP-18 NSCLC = tested on: HOP-18 NSCLC
HOP-92 NSCLC = tested on: HOP-92 NSCLC
HCC-2998 colon = tested on: HCC-2998 colon
RXF 393 renal = tested on: RXF 393 renal
SK-MEL-28 melanoma = tested on: SK-MEL-28 melanoma
U251 CNS = tested on: U251 CNS
NCI-H226 lung = tested on: NCI-H226 lung
XF 498 CNS = tested on: XF 498 CNS

O=C1C=CC=CC2CC=C[C@@H](O)C12 (some centres undefined) was tested, and the TGI (EKVX NSCLC) was 63.5 µM, the TGI (SF-268 CNS) was 54.5 µM and the TGI (UO-31 renal) was 31.5 µM. It also gave a TGI (A498 renal) of 38.2 µM, a TGI (RPMI-8226 leukemia) of 15.3 µM and a TGI (IGROV1 ovarian) greater than 100 µM. It also gave a TGI (LOX IMVI melanoma) of 38.9 µM, a TGI (KM12 colon) of 24.5 µM and a TGI (DMS 273 small cell lung) of 51.5 µM. The TGI (SF-539 CNS) was 63.9 µM, the TGI (786-0 renal) was 33.8 µM and the TGI (LXFL 529 NSCLC) was 36.2 µM. It also gave a TGI (HOP-62 NSCLC) greater than 100 µM, a TGI (A549 NSCLC) of 67.7 µM and a TGI (OVCAR-5 ovarian) of 63 µM. The TGI (OVCAR-4 ovarian) was greater than 100 µM, the TGI (SW-620 colon) was 35.3 µM and the TGI (SNB-78 CNS) was greater than 100 µM. For the same molecule, the TGI (OVCAR-8 ovarian) was greater than 100 µM, the TGI (SNB-19 CNS) was 54.3 µM and the TGI (HCT-116 colon) was 27.7 µM. The TGI (SK-OV-3 ovarian) was greater than 100 µM, the TGI (KM20L2 colon) was 56 µM and the TGI (UACC-257 melanoma) was 29.7 µM. The TGI (NCI-H460 lung) was 38 µM, the TGI (ACHN renal) was 31.8 µM and the TGI (CCRF-CEM leukemia) was greater than 100 µM. For the same molecule, the TGI (SK-MEL-5 melanoma) was 38 µM, the TGI (M19-MEL melanoma) was 34.2 µM and the TGI (K-562 leukemia) was greater than 100 µM. For the same molecule, the TGI (CAKI-1 renal) was greater than 100 µM, the TGI (SF-295 CNS) was 48.5 µM and the TGI (MOLT-4 leukemia) was greater than 100 µM. The TGI (MALME-3M melanoma) was 46.8 µM, the TGI (M14 melanoma) was 50.7 µM and the TGI (DLD-1 colon) was greater than 100 µM. The TGI (SK-MEL-2 melanoma) was 58.5 µM, the TGI (DMS 114 small cell lung) was 38.7 µM and the TGI (COLO 205 colon) was 39.5 µM. The TGI (SN12C renal) was 47.2 µM, the TGI (SR leukemia) was 44.2 µM and the TGI (TK-10 renal) was greater than 100 µM. It also gave a TGI (HL-60(TB) leukemia) of 37 µM, a TGI (HCT-15 colon) of 35.2 µM and a TGI (HT29 colon) of 37.7 µM. For the same molecule, the TGI (UACC-62 melanoma) was 38.5 µM and the TGI (NCI-H522 lung) was 26.8 µM.

O=Cc1ccccc1OCCOc1cc(OCCOc2ccccc2C=O)c(OCCOc2ccccc2C=O)cc1OCCOc1ccccc1C=O gave a TGI (EKVX NSCLC) greater than 100 µM, a TGI (SF-268 CNS) greater than 100 µM and a TGI (UO-31 renal) greater than 100 µM. It also gave a TGI (OVCAR-3 ovarian) greater than 100 µM, a TGI (A498 renal) greater than 100 µM and a TGI (RPMI-8226 leukemia) greater than 100 µM. It also gave a TGI (IGROV1 ovarian) greater than 100 µM, a TGI (LOX IMVI melanoma) greater than 100 µM and a TGI (NCI-H23 lung) greater than 100 µM. For the same molecule, the TGI (KM12 colon) was greater than 100 µM, the TGI (DMS 273 small cell lung) was greater than 100 µM and the TGI (SF-539 CNS) was greater than 79 µM. The TGI (786-0 renal) was greater than 71.3 µM, the TGI (LXFL 529 NSCLC) was greater than 100 µM and the TGI (HOP-62 NSCLC) was greater than 100 µM. It also gave a TGI (SNB-75 CNS) of 23.9 µM, a TGI (A549 NSCLC) greater than 100 µM and a TGI (OVCAR-5 ovarian) greater than 100 µM. It also gave a TGI (OVCAR-4 ovarian) greater than 100 µM, a TGI (SW-620 colon) greater than 100 µM and a TGI (SNB-78 CNS) greater than 100 µM. It also gave a TGI (HOP-18 NSCLC) greater than 100 µM, a TGI (OVCAR-8 ovarian) greater than 100 µM and a TGI (SNB-19 CNS) greater than 82.9 µM. The TGI (HCT-116 colon) was greater than 71.2 µM, the TGI (SK-OV-3 ovarian) was greater than 100 µM and the TGI (KM20L2 colon) was greater than 100 µM. It also gave a TGI (UACC-257 melanoma) greater than 100 µM, a TGI (NCI-H460 lung) greater than 100 µM and a TGI (ACHN renal) greater than 92.5 µM. For the same molecule, the TGI (HOP-92 NSCLC) was greater than 79.8 µM, the TGI (HCC-2998 colon) was greater than 100 µM and the TGI (RXF 393 renal) was greater than 100 µM. It also gave a TGI (CCRF-CEM leukemia) greater than 100 µM, a TGI (SK-MEL-5 melanoma) greater than 100 µM and a TGI (M19-MEL melanoma) greater than 100 µM. The TGI (K-562 leukemia) was greater than 100 µM, the TGI (SK-MEL-28 melanoma) was greater than 100 µM and the TGI (CAKI-1 renal) was greater than 100 µM. It also gave a TGI (MOLT-4 leukemia) greater than 100 µM, a TGI (MALME-3M melanoma) greater than 100 µM and a TGI (M14 melanoma) greater than 100 µM. It also gave a TGI (DLD-1 colon) greater than 100 µM, a TGI (SK-MEL-2 melanoma) greater than 100 µM and a TGI (DMS 114 small cell lung) greater than 100 µM. The TGI (COLO 205 colon) was greater than 100 µM, the TGI (SN12C renal) was greater than 100 µM and the TGI (SR leukemia) was greater than 100 µM. It also gave a TGI (TK-10 renal) of 96.8 µM, a TGI (HL-60(TB) leukemia) greater than 100 µM and a TGI (U251 CNS) greater than 50.1 µM. For the same molecule, the TGI (HCT-15 colon) was greater than 100 µM, the TGI (HT29 colon) was greater than 100 µM and the TGI (NCI-H226 lung) was greater than 100 µM. For the same molecule, the TGI (UACC-62 melanoma) was greater than 100 µM, the TGI (XF 498 CNS) was greater than 71.5 µM and the TGI (NCI-H522 lung) was greater than 100 µM.
